From PMC4047925 (Journal of Agricultural and Food Chemistry, 2014)

test: hydroxyl radical-scavenging assay; assay type: biochemical; details: ED50 <20 μM considered active

SMILES | hydroxyl radical scavenging ED50 (concentration scavenging hydroxyl radical by 50%) [µM]
COC(=O)C(C)n1c(C=O)ccc1CO (stereo not drawn) [Compound 1, methyl 2-[2-formyl-5-(hydroxymethyl)-1H-pyrrol-1-yl]propanoate] | 16.7
O=c1c(O)c(-c2ccc(O)c(O)c2)oc2cc(O)cc(O)c12 [quercetin, reference compound] | 1.3
CC(=O)c1ccc(O)cn1 [Compound 6, 5-hydroxy-2-pyridyl methyl ketone] | >20
